The source of these data is ChEMBL document CHEMBL2040786, “Click chemistry-derived bivalent quinine inhibitors of P-glycoprotein-mediated cellular efflux” (Bioorg Med Chem Lett, 2012).

As usually defined, the IC50 is the concentration needed to halve the response being measured.

The first series deals with T1, ATP-dependent translocase ABCB1 (Homo sapiens, UniProt P08183). The experiment in a line: Inhibition of p-glycoprotein expressed in human MCF-7/DX1 cells assessed as accumulation of calcein-AM at 1 uM by FACS analysis. It is filed as cell-based.
T1 sequence (P08183 whole entry): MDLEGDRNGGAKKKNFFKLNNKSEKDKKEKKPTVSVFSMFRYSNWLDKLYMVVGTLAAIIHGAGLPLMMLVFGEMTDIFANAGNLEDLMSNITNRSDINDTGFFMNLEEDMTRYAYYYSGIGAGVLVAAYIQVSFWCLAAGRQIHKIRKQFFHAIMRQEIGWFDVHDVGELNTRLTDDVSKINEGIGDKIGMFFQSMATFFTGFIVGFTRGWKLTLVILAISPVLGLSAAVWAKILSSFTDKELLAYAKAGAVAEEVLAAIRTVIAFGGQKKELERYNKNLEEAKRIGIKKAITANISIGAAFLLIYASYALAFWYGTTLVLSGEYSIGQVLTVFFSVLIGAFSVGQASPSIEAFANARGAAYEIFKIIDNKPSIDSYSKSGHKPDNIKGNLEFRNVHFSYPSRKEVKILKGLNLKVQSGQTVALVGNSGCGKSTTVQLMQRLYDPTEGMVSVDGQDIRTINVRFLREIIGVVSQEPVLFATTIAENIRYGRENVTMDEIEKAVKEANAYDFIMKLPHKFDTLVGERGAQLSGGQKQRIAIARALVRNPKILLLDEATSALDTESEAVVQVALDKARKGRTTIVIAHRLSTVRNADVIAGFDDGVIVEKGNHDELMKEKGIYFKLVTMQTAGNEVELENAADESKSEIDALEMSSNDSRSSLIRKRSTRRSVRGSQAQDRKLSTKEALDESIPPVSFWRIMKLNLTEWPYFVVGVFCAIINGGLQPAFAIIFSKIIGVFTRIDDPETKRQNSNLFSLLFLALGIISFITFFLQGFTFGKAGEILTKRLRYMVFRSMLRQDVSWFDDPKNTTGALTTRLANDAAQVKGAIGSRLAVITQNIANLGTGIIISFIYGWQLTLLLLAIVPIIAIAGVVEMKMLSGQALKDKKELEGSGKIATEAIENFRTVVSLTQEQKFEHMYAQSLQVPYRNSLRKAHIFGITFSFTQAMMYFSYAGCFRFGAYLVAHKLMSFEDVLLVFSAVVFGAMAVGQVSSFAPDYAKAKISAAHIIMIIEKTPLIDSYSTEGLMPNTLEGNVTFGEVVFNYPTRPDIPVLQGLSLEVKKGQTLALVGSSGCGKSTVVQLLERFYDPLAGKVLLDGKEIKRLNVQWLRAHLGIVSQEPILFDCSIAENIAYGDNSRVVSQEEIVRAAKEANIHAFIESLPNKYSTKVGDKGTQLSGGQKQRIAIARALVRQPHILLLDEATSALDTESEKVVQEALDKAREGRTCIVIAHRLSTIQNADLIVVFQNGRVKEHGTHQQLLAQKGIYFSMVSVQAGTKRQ
`C=C[C@H]1CN2CC[C@H]1C[C@H]2[C@H](OC(=O)CCCCCCc1cn(CCCCCCC(=O)O[C@H](c2ccnc3ccc(OC)cc23)[C@@H]2C[C@@H]3CCN2C[C@@H]3C=C)nn1)c1ccnc2ccc(OC)cc12`: the “inhibition (INH)” value is reported as “Active”.

For a further series, the target named is T1, ATP-dependent translocase ABCB1. The experiment in a line: Inhibition of p-glycoprotein expressed in human MCF-7/DX1 cells assessed as accumulation of calcein-AM by FACS analysis. In kind it is cell-based.
On to `C=C[C@H]1CN2CC[C@H]1C[C@H]2[C@H](OC(=O)CCCCc1cn(CCCCC(=O)O[C@H](c2ccnc3ccc(OC)cc23)[C@@H]2C[C@@H]3CCN2C[C@@H]3C=C)nn1)c1ccnc2ccc(OC)cc12`, for which the half-maximal inhibitory concentration (IC50) is 4.6 µM.
Same read-out and setting: the result for `C=C[C@H]1CN2CC[C@H]1C[C@H]2[C@H](OC(=O)CCc1cn(CCC(=O)O[C@H](c2ccnc3ccc(OC)cc23)[C@@H]2C[C@@H]3CCN2C[C@@H]3C=C)nn1)c1ccnc2ccc(OC)cc12` reads 6.1 µM.
As for `C=C[C@H]1CN2CC[C@H]1C[C@H]2[C@H](OC(=O)CCCCCCc1cn(CCCCC(=O)O[C@H](c2ccnc3ccc(OC)cc23)[C@@H]2C[C@@H]3CCN2C[C@@H]3C=C)nn1)c1ccnc2ccc(OC)cc12`, the IC50 was 2.8 µM.
Same read-out and setting: the result for `C=C[C@H]1CN2CC[C@H]1C[C@H]2[C@H](OC(=O)CCCCCCn1cc(CCC(=O)O[C@H](c2ccnc3ccc(OC)cc23)[C@@H]2C[C@@H]3CCN2C[C@@H]3C=C)nn1)c1ccnc2ccc(OC)cc12` reads 3.6 µM; that for `C=C[C@H]1CN2CC[C@H]1C[C@H]2[C@H](OC(=O)CCCCCCCCc1cn(CCCCCCCCC(=O)O[C@H](c2ccnc3ccc(OC)cc23)[C@@H]2C[C@@H]3CCN2C[C@@H]3C=C)nn1)c1ccnc2ccc(OC)cc12`, 4.5 µM.
On the same count and under the same terms, the result for `C=C[C@H]1CN2CC[C@H]1C[C@H]2[C@H](OC(=O)CCCCn1cc(CCC(=O)O[C@H](c2ccnc3ccc(OC)cc23)[C@@H]2C[C@@H]3CCN2C[C@@H]3C=C)nn1)c1ccnc2ccc(OC)cc12` reads 6.2 µM; that for `C=C[C@H]1CN2CC[C@H]1C[C@H]2[C@H](OC(=O)CCCCCCc1cn(CCCCCCC(=O)O[C@H](c2ccnc3ccc(OC)cc23)[C@@H]2C[C@@H]3CCN2C[C@@H]3C=C)nn1)c1ccnc2ccc(OC)cc12`, 2.7 µM; that for `C=C[C@H]1CN2CC[C@H]1C[C@H]2[C@H](OC(=O)CCCCCCn1cc(CCCCC(=O)O[C@H](c2ccnc3ccc(OC)cc23)[C@@H]2C[C@@H]3CCN2C[C@@H]3C=C)nn1)c1ccnc2ccc(OC)cc12`, 2.9 µM.
